Measurements from patent US6020176A, “Kaurene synthase” (The Institute of Physical and Chemical Research, priority 1995, dated 2000).

System: ent-kaurene synthase B (KSB)
Assay: Properties of KSB with the phenyl-purified enzyme preparation (pH, Km, cations)
Assay type: biochemical, Cucurbita maxima L.
Settings: for effect of divalent cation on KSB activity: 0.1-50 mM as chlorides, instead of 5 mM Mg2+; for effect of divalent cation on KSB activity / optimal concentration of cation for KSB activity: FIG. 4; for optimal concentration of cation for KSB activity: cation as chloride instead of 5 mM Mg2+
Procedure: The mixture was incubated at 30° C. for 30 min, and the enzyme reaction was terminated by the addition of acetone (200 μL) and water (100 μL). The mixture was extracted with n-hexane (400 μL), and 300 μL alibuots of the extract were concentrated in vacuo and applied to a silica gel plate. After developing with n-hexane, the radioactivity of the silica gel of the ent-kaurene region (Rf 0.6-1.0) was determined. One unit of kaurene synthase activity was defined as the production of 1 pmol of ent-kaurene per minute.
The amount of [1-^3 H]CPP was 2.2 kBq and the incubation period was 15 min. The other conditions were the same as those for the enzyme assay. To determine the optimal pH, KPi buffer (50 mM) adjusted to a particular pH (pH 4.5 to 9.0) was used. […] The production of ent-kaurene was calculated and the Km value was determined from a Lineweaver-Burk plot.

SMILES	effect of divalent cation on KSB activity	optimal concentration of cation for KSB activity	effect on KSB activity in combination with 5 mM Mg2+ (added together with 5 mM Mg2+)	also measured
O=C(O)CN(CCN(CC(=O)O)CC(=O)O)CC(=O)O [EDTA]				effect of EDTA on KSB activity (EDTA 1-100 mM): did not change KSB activity
[Cl-].[Cl-].[Co+2] [Co^2+]	promoted KSB activity	around 10 mM		
[Ca+2].[Cl-].[Cl-] [Ca^2+]	showed no effects		inhibited KSB activity promoted by Mg^2+	
C=C1CC[C@@H]2C(C)(C)CCC[C@@]2(C)[C@@H]1CC/C(C)=C/COP(=O)(O)OP(=O)(O)O [[15-^3 H]CPP, copalyl pyrophosphate]				Km (phenyl-purified enzyme preparation, CPP 7 to 480 nM, Lineweaver-Burk plot): 0.35 µM
[Cl][Ni][Cl] [Ni^2+]	weakly promoted KSB activity			
[Cl][Mn][Cl] [Mn^2+]	promoted KSB activity	around 10 mM		
[Cl][Cu][Cl] [Cu^2+]	showed no effects		inhibited KSB activity promoted by Mg^2+	concentration completely inhibiting the conversion promoted by 5 mM Mg2+ (added together with 5 mM Mg2+): above 0.5 mM
[Cl-].[Cl-].[Mg+2] [Mg^2+]	promoted KSB activity	around 10 mM		
[Cl][Fe][Cl] [Fe^2+]	weakly promoted KSB activity			
[Ba+2].[Cl-].[Cl-] [Ba^2+]	showed no effects		inhibited KSB activity promoted by Mg^2+	
